Test results reported in patent US9783527B2, “Indazole ureas and method of use” (AbbVie Inc., priority 2014, dated 2017).
pIC50: −log10 of the molar value.

Assays:
human Nav1.7 = human Nav1.7 (Homo sapiens (Human), UniProt Q15858); assay: FRET-based membrane potential assay, recombinant human sodium channel Nav1.7; type: cell-based; settings: HEK293 cells stably expressing recombinant human Nav1.7; depolarization with veratridine (EC80) + scorpion venom
Procedure, shortened: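 IC50 derived by four-parameter Hill fit of percent inhibition of depolarization, measured as peak F440-480/F565-625 ratio over baseline. Stable human Nav1.7 HEK293 cells, dye-loaded with CC2-DMPE and DiSBAC2(3)/VABSC-1 at room temperature, received compound 3 min ahead of veratridine (EC80) plus scorpion venom.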

[1] = tested on: spinal nerve ligation-induced neuropathic pain in rats; assay: Rat spinal nerve ligation (SNL) model of neuropathic pain, von Frey paw withdrawal threshold; type: in vivo; settings: SNL dose 100 mg/kg; male Sprague Dawley rats, mechanical sensitivity (von Frey)
From the text: Rat Spinal Nerve Ligation (SNL) Model of Neuropathic Pain.
A model of spinal nerve ligation-induced (SNL model) neuropathic pain as originally described by Kim and Chung (Kim, S. H. and J. M. Chung, 1992, Pain 50, 355) was used to test a compound of the present application. The male Sprague Dawley rats (Charles River Laboratories, Wilmington, Mass.), weighing 150-175 g at the time of surgery, were placed under isoflurane anesthesia and a 1.5 cm incision was made dorsal to the lumbosacral plexus. The paraspinal muscles (left side) were separated from the spinous processes, the left L5 and L6 spinal nerves isolated, and tightly ligated with 5-0 silk suture distal to the dorsal root ganglion. Care was taken to avoid ligating the L4 spinal nerve. Following spinal nerve ligation, a minimum of 7 days of recovery and no more than 3 weeks was allowed prior to the behavioral testing (mechanical sensitivity). Only rats with threshold scores ≦4.5 g were considered allodynic and utilized in pharmacological experiments.
Mechanical sensitivity was measured using calibrated von Frey filaments (Stoelting, Wood Dale, Ill.). Paw withdrawal threshold (PWT) was determined by using the Dixon's up-down method (Dixon, W. J., 1980, Ann. Rev. Pharmacol. Toxicol., 20, 441). Rats were placed into inverted individual plastic containers (20×12.5×20 cm) on top of a suspended wire mesh with a 1 cm^2 grid to provide access to the ventral side of the hind paws, and acclimated to the test chambers for 20 minutes. The von Frey filaments were presented perpendicularly to the plantar surface of the selected hind paw, and then held in this position for approximately 8 seconds with enough force to cause a slight bend in the filament. Positive responses included an abrupt withdrawal of the hind paw from the stimulus, or flinching behavior immediately following removal of the stimulus. A 50% withdrawal threshold was determined using an up-down procedure (Dixon, 1980). A percent maximal possible effect (% MPE) of testing compound was calculated according to the formula: (Log [compound-treated threshold]−Log [vehicle-treated threshold])/(Log [maximum threshold]−Log [vehicle-treated threshold])×100%, where the maximum threshold was equal to 15 g.
The animals were housed in Association for Assessment and Accreditation of Laboratory Animal Care (AAALAC) approved facilities at AbbVie Inc. in a temperature-regulated environment under a controlled 12-hour light-dark cycle, with lights on at 6:00 a.m. Food and water were available ad libitum at all times except during testing. All testing was done following procedures outlined in protocols approved by AbbVie Inc.s' Institutional Animal Care and Use Committee.

Chain of human Nav1.7 (Q15858 whole entry): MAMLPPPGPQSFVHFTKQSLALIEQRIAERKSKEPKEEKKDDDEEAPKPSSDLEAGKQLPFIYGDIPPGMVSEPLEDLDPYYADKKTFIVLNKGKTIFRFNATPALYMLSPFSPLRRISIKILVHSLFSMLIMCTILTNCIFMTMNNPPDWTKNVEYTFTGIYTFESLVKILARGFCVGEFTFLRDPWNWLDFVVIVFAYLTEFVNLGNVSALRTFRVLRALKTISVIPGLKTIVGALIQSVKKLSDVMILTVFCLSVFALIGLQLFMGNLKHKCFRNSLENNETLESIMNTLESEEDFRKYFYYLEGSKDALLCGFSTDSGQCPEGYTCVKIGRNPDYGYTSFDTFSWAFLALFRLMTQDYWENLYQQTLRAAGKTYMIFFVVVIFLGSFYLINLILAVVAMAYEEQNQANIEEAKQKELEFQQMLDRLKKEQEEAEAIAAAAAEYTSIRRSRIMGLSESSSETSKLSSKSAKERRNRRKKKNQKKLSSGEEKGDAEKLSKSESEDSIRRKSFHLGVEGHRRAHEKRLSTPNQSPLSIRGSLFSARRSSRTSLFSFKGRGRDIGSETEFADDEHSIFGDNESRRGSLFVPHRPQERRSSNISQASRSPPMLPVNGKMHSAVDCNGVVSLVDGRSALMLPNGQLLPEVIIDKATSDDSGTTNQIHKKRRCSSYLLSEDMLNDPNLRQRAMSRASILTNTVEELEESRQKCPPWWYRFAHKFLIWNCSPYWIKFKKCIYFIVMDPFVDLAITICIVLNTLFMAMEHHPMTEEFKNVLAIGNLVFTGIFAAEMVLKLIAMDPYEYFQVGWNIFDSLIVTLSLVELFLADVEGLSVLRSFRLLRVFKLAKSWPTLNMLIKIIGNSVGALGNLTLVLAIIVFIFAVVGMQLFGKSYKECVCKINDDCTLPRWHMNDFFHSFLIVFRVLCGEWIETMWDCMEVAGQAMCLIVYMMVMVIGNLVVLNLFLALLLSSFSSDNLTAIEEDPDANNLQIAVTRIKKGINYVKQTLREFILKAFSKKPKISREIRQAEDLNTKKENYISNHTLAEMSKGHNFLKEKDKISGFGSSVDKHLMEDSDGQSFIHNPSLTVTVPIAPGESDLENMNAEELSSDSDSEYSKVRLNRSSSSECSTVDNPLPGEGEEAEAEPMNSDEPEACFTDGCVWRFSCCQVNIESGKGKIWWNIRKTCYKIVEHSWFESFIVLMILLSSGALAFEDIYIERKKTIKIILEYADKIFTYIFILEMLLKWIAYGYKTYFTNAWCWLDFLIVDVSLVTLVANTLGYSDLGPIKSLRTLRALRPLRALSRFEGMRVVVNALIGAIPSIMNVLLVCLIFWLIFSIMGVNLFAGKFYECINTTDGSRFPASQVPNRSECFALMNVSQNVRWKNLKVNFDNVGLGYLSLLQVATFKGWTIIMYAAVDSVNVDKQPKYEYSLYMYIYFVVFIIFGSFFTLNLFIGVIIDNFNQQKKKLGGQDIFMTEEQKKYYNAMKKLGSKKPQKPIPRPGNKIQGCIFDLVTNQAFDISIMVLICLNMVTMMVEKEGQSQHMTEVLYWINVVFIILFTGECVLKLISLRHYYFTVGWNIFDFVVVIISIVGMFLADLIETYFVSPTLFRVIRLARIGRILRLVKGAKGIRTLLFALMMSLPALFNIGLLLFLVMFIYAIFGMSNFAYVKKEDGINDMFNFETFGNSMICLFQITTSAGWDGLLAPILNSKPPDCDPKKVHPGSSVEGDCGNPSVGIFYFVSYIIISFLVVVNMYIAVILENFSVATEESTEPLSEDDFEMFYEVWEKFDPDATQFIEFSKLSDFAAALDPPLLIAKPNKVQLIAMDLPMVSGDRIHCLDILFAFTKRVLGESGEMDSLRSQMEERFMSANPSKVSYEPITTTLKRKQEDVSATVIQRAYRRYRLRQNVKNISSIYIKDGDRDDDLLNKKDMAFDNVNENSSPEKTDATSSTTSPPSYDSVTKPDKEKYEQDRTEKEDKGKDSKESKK

Row | SMILES | pIC50 (human Nav1.7) | SNL MPE (%) [1]
1 | Cc1noc(C(C)N2CCN(c3cccc4c3cnn4-c3ccccc3F)C2=O)n1 (racemic) [Example 46, 1-[1-(2-fluorophenyl)-1H-indazol-4-yl]-3-[1-(3-methyl-1,2,4-oxadiazol-5-yl)ethyl]imidazolidin-2-one] | 5.73 | 59%
2 | C[C@H]1CCCN1C(=O)CN1CCN(c2cccc3c2cnn3-c2ccccc2F)C1=O [Example 15, 1-[1-(2-fluorophenyl)-1H-indazol-4-yl]-3-{2-[(2S)-2-methylpyrrolidin-1-yl]-2-oxoethyl}imidazolidin-2-one] | 6.20 | 74%
3 | Cc1noc(C)c1CN1CCN(c2cccc3c2cnn3-c2ccccc2F)C1=O [Example 27, 1-[(3,5-dimethyl-1,2-oxazol-4-yl)methyl]-3-[1-(2-fluorophenyl)-1H-indazol-4-yl]imidazolidin-2-one] | 6.26 | 63%
4 | O=C(CN1CCN(c2cccc3c2cnn3-c2ccccc2F)C1=O)N[C@@H]1CCOC1 [Example 55, 2-{3-[1-(2-fluorophenyl)-1H-indazol-4-yl]-2-oxoimidazolidin-1-yl}-N-[(3R)-tetrahydrofuran-3-yl]acetamide] | 5.65 | 91%
